Test results published in patent US9816993B2, “Magnetically induced microspinning for super-detection and super-characterization of biomarkers and live cells” (THE REGENTS OF THE UNIVERSITY OF MICHIGAN, priority 2011, dated 2017).

System: HeLa cell
Test: Cell magnetorotation of a single HeLa cell: rotation period and morphology under toxic agents
Assay type: cell-based
Source text: The Y axis is the normalized period, and the X axis is time in seconds. Lines show trend between connected points. For each graph, in the pictures above it, the bottom pictures show snapshots of the rotated cell at each indicated time, while the schematic pictures on top of it show the corresponding cell shapes (fixated cell not shown). Dark discs represent the cell cytoplasm and membrane, while grey spots show the vesicles formed at the surface, if any.
In this example, cancer cells loaded with nanoparticles were magnetically separated and resuspended in different media, such as culture medium (DMEM), DMEM with 5% Ethanol, or DMEM with 75% deionized water. Each medium was used to verify different aspects of this method: DMEM was used as a control, ethanol was used as a cytotoxic agent, and, to promote stress through cell swelling, we used a large proportion of DI water, reversing the ionic balance between the inside and outside of the cell. Note that a large concentration of salt in solution has the opposite effect on the cell, namely shrinking it. The cells in suspension were then pipetted onto a LIVE CELL ARRAY plate (NUNC), where the array has 100 μm wide wells, which provide adequate compartments for single cells to rotate and be analyzed. Optical scattering signals were recorded and the changes in the rotation period were measured for the different media (FIG. 2).
Cell swelling generally occurs because of the osmotic pressure created either by an ionic imbalance, as mentioned earlier, or by a lack of nutrients. Either way, the cell expands to cope with the imbalance of the chemicals it needs for maintaining its metabolism. To reach ionic disparity, we used DI water (FIG. 2B).

Row | Structure (SMILES) | rise of cell rotation period (Cisplatin 100 ug/ml (red line on FIG. 2D)) | time for blebs to appear at the surface of the cell (Cisplatin at 100 ug/ml) | cell death (single HeLa cell in DMEM with 100 ug/ml Cisplatin) | time for blebs to appear at the surface of the cell (5% ethanol in DMEM) | rise of cell rotation period (5% ethanol in DMEM (FIG. 2C)) | cell death (single HeLa cell in DMEM with 5% ethanol)
1 | N.N.[Cl][Pt][Cl] [Cisplatin] | 550% | several hours | cell death is provoked |  |  | 
2 | CCO [ethanol] |  |  |  | around 30 minutes | 550% | cell death is provoked
